Measurements from patent publication US20040132156A1, “Modified hepsin molecules having a substitute activation sequence and uses thereof” (Schering Aktiengesellschaft, priority 2002, published 2004).
Where two headings read alike, the source gives them in different places.

System: hepsin mRNA in LNCaP cells
Settings: DHT 10 nM, 24 or 72 hours, Northern blot, compared to GAPDH
Procedure: The prostate cancer cell lines, LNCaP, were obtained from ATCC. The LNCaP cells were treated with dihydrotestosterone (Sigma A 8380) in order to study the response of hepsin mRNA expression to androgens. The confluent cells were cultured in growth medium containing charcoal-stripped FBS for 24 hours. DHT was added to each flask at 10 nM. For control cells, ethanol was added as a vehicle control. The cells were incubated for 24 or 72 hours.
Total RNA was isolated from the cell lines using the RNeasy Maxi Kit (Qiagen), as described in section E above. The Northern gel and blot methods were performed as described in section A above.
The fold-increase of the amount of hepsin mRNA compared to GAPDH was performed according to section C above.

C[C@]12CCC(=O)C[C@@H]1CC[C@@H]1[C@@H]2CC[C@]2(C)[C@@H](O)CC[C@@H]12 [DHT, dihydrotestosterone]
hepsin mRNA transcript levels: increased | hepsin mRNA transcript levels (listed as dihydrotestosterone): Up-regulation
